Results taken from the supplement of paper PMC10307832.

Legend:
Test in all cases: relative viability (nuclei count vs DMSO), 5 days (fraction); higher = more cells survive
NCI-H2405 = tested on: NCI-H2405
How it was run: (§1)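 The day after seeding in 1536-well plates, lung cancer cell lines were treated by pin tool with a single drug, or with a fixed anchor-drug dose together with five library-drug doses (not always all listed) in √10 steps. After 5 days, a combined fix-and-stain solution (final 0.05% Triton X-100, 1% formaldehyde, 1 ug/ml Hoechst) was added. Nuclei counted on 4× images gave relative viability as treated counts over vehicle counts, reported as the median of duplicate plates.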

NCI-H2009 = tested on: NCI-H2009
How it was run: as §1

LOU-NH91 = tested on: LOU-NH91
How it was run: as §1

NCI-H1623 = tested on: NCI-H1623
How it was run: as §1

NCI-H647 = tested on: NCI-H647
How it was run: as §1

A549 = tested on: A549
How it was run: as §1

| Compound | relative viability (NCI-H2405; first compound 0.2 µM) | relative viability (NCI-H2405; first compound 0.6325 µM) | relative viability (NCI-H2405; first compound 2 µM) | relative viability (NCI-H2405; first compound 6.325 µM) | relative viability (NCI-H2405; first compound 20 µM) | relative viability (NCI-H2009; first compound 0.2 µM) | relative viability (NCI-H2009; first compound 0.6325 µM) | relative viability (NCI-H2009; first compound 2 µM) | relative viability (NCI-H2009; first compound 6.325 µM) | relative viability (NCI-H2009; first compound 20 µM) | relative viability (LOU-NH91; first compound 0.2 µM) | relative viability (LOU-NH91; first compound 0.6325 µM) | relative viability (LOU-NH91; first compound 2 µM) | relative viability (LOU-NH91; first compound 6.325 µM) | relative viability (LOU-NH91; first compound 20 µM) | relative viability (NCI-H1623; first compound 0.2 µM) | relative viability (NCI-H1623; first compound 0.6325 µM) | relative viability (NCI-H1623; first compound 2 µM) | relative viability (NCI-H1623; first compound 6.325 µM) | relative viability (NCI-H647; first compound 0.2 µM) | other results |
| --- | --- | --- | --- | --- | --- | --- | --- | --- | --- | --- | --- | --- | --- | --- | --- | --- | --- | --- | --- | --- | --- |
| Cc1csc(=NC2CCCCC2)n1/N=C/c1ccc(O)c(O)c1O [MIM1] + Cc1nc(Nc2ncc(C(=O)Nc3c(C)cccc3Cl)s2)cc(N2CCN(CCO)CC2)n1 [Dasatinib] (partner 0.075 µM) | 0.21 | 0.225 | 0.209 | 0.205 | 0.48 | 0.303 | 0.327 | 0.293 | 0.204 | 0.123 | 0.502 | 0.529 | 0.537 | 0.497 | 0.365 | 0.594 | 0.476 | 0.498 | 0.536 | 0.232 | relative viability (NCI-H1623; first compound 20 µM): 0.299; relative viability (NCI-H647; first compound 0.6325 µM): 0.225; relative viability (NCI-H647; first compound 6.325 µM): 0.145; relative viability (NCI-H647; first compound 20 µM): 0.0584 |
| Cc1csc(=NC2CCCCC2)n1/N=C/c1ccc(O)c(O)c1O [MIM1] + N=C(N)NC(=N)NCCc1ccccc1 [Phenformin] (partner 250 µM) | 0.402 | 0.375 | 0.385 | 0.386 | 0.371 | 0.493 | 0.479 | 0.45 | 0.309 | 0.169 | 0.695 | 0.709 | 0.625 | 0.548 | 0.302 | 0.561 | 0.428 | 0.587 | 0.562 | 0.602 | relative viability (NCI-H1623; first compound 20 µM): 0.374; relative viability (NCI-H647; first compound 0.6325 µM): 0.431; relative viability (NCI-H647; first compound 6.325 µM): 0.4; relative viability (NCI-H647; first compound 20 µM): 0.0969; relative viability (A549; first compound 0.2 µM): 0.164; relative viability (A549; first compound 0.6325 µM): 0.108; relative viability (A549; first compound 2 µM): 0.144; relative viability (A549; first compound 6.325 µM): 0.108; relative viability (A549; first compound 20 µM): 0.0481 |
| CCNC(=O)c1noc(-c2cc(C(C)C)c(O)cc2O)c1-c1ccc(CN2CCOCC2)cc1 [Luminespib] + Cc1nc(Nc2ncc(C(=O)Nc3c(C)cccc3Cl)s2)cc(N2CCN(CCO)CC2)n1 [Dasatinib] (partner 0.075 µM) | 0.138 |  |  |  |  | 0.0808 |  |  |  |  | 0.29 |  |  |  |  | 0.406 |  |  |  | 0.0598 | relative viability (NCI-H2405; first compound 0.002 µM): 0.226; relative viability (NCI-H2405; first compound 0.006325 µM): 0.182; relative viability (NCI-H2405; first compound 0.02 µM): 0.178; relative viability (NCI-H2405; first compound 0.06325 µM): 0.164; relative viability (NCI-H2009; first compound 0.002 µM): 0.342; relative viability (NCI-H2009; first compound 0.006325 µM): 0.251; relative viability (NCI-H2009; first compound 0.02 µM): 0.222; relative viability (NCI-H2009; first compound 0.06325 µM): 0.0645; relative viability (LOU-NH91; first compound 0.002 µM): 0.517; relative viability (LOU-NH91; first compound 0.006325 µM): 0.543; relative viability (LOU-NH91; first compound 0.02 µM): 0.388; relative viability (LOU-NH91; first compound 0.06325 µM): 0.258; relative viability (NCI-H1623; first compound 0.002 µM): 0.525; relative viability (NCI-H1623; first compound 0.006325 µM): 0.384; relative viability (NCI-H1623; first compound 0.02 µM): 0.416; relative viability (NCI-H1623; first compound 0.06325 µM): 0.506; relative viability (NCI-H647; first compound 0.002 µM): 0.199; relative viability (NCI-H647; first compound 0.006325 µM): 0.13; relative viability (NCI-H647; first compound 0.02 µM): 0.13; relative viability (NCI-H647; first compound 0.06325 µM): 0.0549 |
